In data set [1] the target is 2-acylglycerol O-acyltransferase 2 (Homo sapiens, UniProt Q3SYC2). In words: Inhibition of human recombinant MGAT2 assessed as reduction in enzyme-mediated deacylation of oleoyl-CoA incubated for 20 mins by CPM dye based fluorescence assay.
Data set [2] concerns the target 2-acylglycerol O-acyltransferase 2 (Mus musculus, UniProt Q80W94). In words: Inhibition of mouse recombinant MGAT2 assessed as reduction in enzyme-mediated deacylation of oleoyl-CoA incubated for 20 mins by CPM dye based fluorescence assay.
Data set [3] can be described thus: Drug metabolism in human liver microsomes incubated for 15 mins. Type of data set: ADME. The settings on record: read-out: Drug metabolism. (In general: Liver microsomes are vesicles of endoplasmic reticulum, rich in cytochrome P450 enzymes.)
Data set [4] in a line: Drug metabolism in mouse liver microsomes incubated for 15 mins. The class given is ADME. To be noted: read-out: Drug metabolism.
A short description of data set [5]: Solubility in water. Type of data set: physicochemical.
Data set [6] in a line: AUC (0 to 4 hrs) in mouse at 100 mg/kg, po. The class given is ADME, organism-based. Further details: dose 100 mg/kg, time < 4 hr, route oral. To be noted: in vivo.
The nature of data set [7]: Cmax in mouse at 100 mg/kg, po. To be noted: in vivo. Further details: dose 100 mg/kg, route oral. The class given is ADME, organism-based.
A short description of data set [8]: Solubility in FeSSIF solution at pH 5.0. Type of data set: physicochemical.
Data set [9] has as its system Mus musculus. In words: Inhibition of fat absorption in mouse assessed as reduction in plasma triglyceride AUC (0 to 4 hrs) level at 100 mg/kg, po by oral lipid tolerance test. The class given is functional.

What is called IC50 is the concentration that inhibits the measured activity by half. The term solubility denotes how much of the substance goes into solution per volume. A lower solubility goes with a poorly soluble substance. As a reminder, the AUC(0-t) is exposure summed from dosing to a finite time, without extrapolation to infinity. Higher therefore signals more exposure. A word on the Cmax: it is the maximum level reached in the sampled fluid or tissue. The inhibition in vivo is the change of the read-out against control, counted positive when it falls.

Structures are written as SMILES. Values after ≈ are worked out from the molar mass of the structure shown.

2-acylglycerol O-acyltransferase 2 (Homo sapiens, UniProt Q3SYC2), sequence (Q3SYC2 whole entry): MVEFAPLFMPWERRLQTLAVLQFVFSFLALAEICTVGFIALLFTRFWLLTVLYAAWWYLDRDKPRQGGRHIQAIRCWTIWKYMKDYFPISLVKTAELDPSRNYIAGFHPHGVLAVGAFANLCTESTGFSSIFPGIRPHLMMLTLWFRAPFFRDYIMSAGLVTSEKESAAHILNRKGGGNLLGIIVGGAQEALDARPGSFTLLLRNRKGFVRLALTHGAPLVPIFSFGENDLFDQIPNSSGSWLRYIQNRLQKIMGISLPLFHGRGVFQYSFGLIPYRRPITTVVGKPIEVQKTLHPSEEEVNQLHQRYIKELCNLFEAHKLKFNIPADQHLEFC
2-acylglycerol O-acyltransferase 2 (Mus musculus, UniProt Q80W94), sequence (Q80W94 whole entry): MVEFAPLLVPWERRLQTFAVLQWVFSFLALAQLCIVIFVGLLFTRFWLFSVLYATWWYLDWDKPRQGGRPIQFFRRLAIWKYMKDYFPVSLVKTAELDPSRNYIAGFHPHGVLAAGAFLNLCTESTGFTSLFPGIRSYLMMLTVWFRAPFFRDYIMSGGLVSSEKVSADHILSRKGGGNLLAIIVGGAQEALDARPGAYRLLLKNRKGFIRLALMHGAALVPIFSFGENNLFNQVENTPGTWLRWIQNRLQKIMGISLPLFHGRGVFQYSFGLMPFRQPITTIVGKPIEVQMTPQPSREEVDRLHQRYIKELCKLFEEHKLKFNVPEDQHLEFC

Turning to `CC(C)(C)c1ccc(NC(=O)N2Cc3ccc(S(=O)(=O)Nc4ccc(F)cc4)cc3C2)cc1`, the IC50 came out at 594 nM in data set [1] and 1310 nM in [2]. Also, the values for the metabolised at 0.25 h in data set [3] and in [4] were 12.3% and 70.9%, respectively. Besides, in data set [5], the solubility is below 0.07 µg/mL.
For the molecule `CC(C)(C)c1ccc(NC(=O)N2Cc3ccc(S(=O)(=O)Nc4ccc(F)cc4F)cc3C2)cc1`, the IC50 in data set [1] came out at 685 nM.
For `CC(C)(C)c1ccc(NC(=O)N2Cc3ccc(S(=O)(=O)Nc4ccc(F)cc4Cl)cc3C2)cc1`, the IC50 in [1] is 1110 nM.
Same read-out and setting: the same measure for `CCc1cc(F)ccc1NS(=O)(=O)c1ccc2c(c1)CN(C(=O)Nc1ccc(C(C)(C)C)cc1)C2`: 2490 nM.
`COc1cc(F)ccc1NS(=O)(=O)c1ccc2c(c1)CN(C(=O)Nc1ccc(C(C)(C)C)cc1)C2`: the AUC(0-t) at 4 h in data set [6] is 134 ng·h/mL. Further, the Cmax in [7] was found to be 94.3 ng/mL. Besides, the metabolised at 0.25 h in data set [3] worked out at 43.1%; in [4] it was 60.6%. Further, the solubility in data set [8] was found to be 28.3 µg/mL (≈ 56.9 µM); in data set [5], 0.607 µg/mL (≈ 1.22 µM).
Turning to `CCOc1cc(F)ccc1NS(=O)(=O)c1ccc2c(c1)CN(C(=O)Nc1ccc(C(C)(C)C)cc1)C2`, the IC50 in data set [1] was determined as 733 nM.
The same measure, in the same setting: the same measure for `CCCOc1cc(F)ccc1NS(=O)(=O)c1ccc2c(c1)CN(C(=O)Nc1ccc(C(C)(C)C)cc1)C2`: 2300 nM.
Turning to `COc1ccc(NS(=O)(=O)c2ccc3c(c2)CN(C(=O)Nc2ccc(C(C)(C)C)cc2)C3)c(OC)c1`, the IC50 in data set [1] was 3160 nM.
`COc1ccc(NS(=O)(=O)c2ccc3c(c2)CN(C(=O)Nc2ccc(C(C)(C)C)cc2)C3)c(F)c1`: the metabolised at 0.25 h in data set [3] was 20.6%; in data set [4] it was 51.1%. In addition, the solubility was 0.783 µg/mL (≈ 1.57 µM) in data set [8] and below 0.06 µg/mL in [5].
Turning to `CCOc1ccc(NS(=O)(=O)c2ccc3c(c2)CN(C(=O)Nc2ccc(C(C)(C)C)cc2)C3)c(F)c1`, the concentration for half-maximal inhibition (IC50) in data set [1] came out at 5200 nM.
In the case of `CCCOc1ccc(NS(=O)(=O)c2ccc3c(c2)CN(C(=O)Nc2ccc(C(C)(C)C)cc2)C3)c(F)c1`, the IC50 in [1] was 1980 nM.
Same read-out and setting: next, `CCCCOc1ccc(NS(=O)(=O)c2ccc3c(c2)CN(C(=O)Nc2ccc(C(C)(C)C)cc2)C3)c(F)c1`: 547 nM.
For `CCCCCOc1ccc(NS(=O)(=O)c2ccc3c(c2)CN(C(=O)Nc2ccc(C(C)(C)C)cc2)C3)c(F)c1`, the metabolised at 0.25 h in data set [3] is 0.1%; in [4], 12.6%. The solubility in [8] is 10.2 µg/mL (≈ 18.4 µM); in data set [5] it was below 0.06 µg/mL.
As to `CC(C)(C)c1ccc(CC(=O)N2Cc3ccc(S(=O)(=O)Nc4ccc(F)cc4)cc3C2)cc1`, in data set [1], the IC50 turned out to be 8070 nM. The solubility in [5] is below 0.11 µg/mL.
Turning to `CC(C)(C)c1ccc(CCN2Cc3ccc(S(=O)(=O)Nc4ccc(F)cc4)cc3C2)cc1`, in data set [1], the IC50 was 2120 nM. Moreover, the concentration in solution in [5] (solubility) came to 270 µg/mL (≈ 597 µM).
For `CC(C)(C)c1ccc(CCN2CCc3ccc(S(=O)(=O)Nc4ccc(F)cc4)cc3C2)cc1`, the IC50 in data set [1] was 3060 nM.
With `CC(C)(C)c1ccc(CCN2CCc3cc(S(=O)(=O)Nc4ccc(F)cc4)ccc3C2)cc1`, the IC50 in data set [1] came to 1520 nM; in [2], 1170 nM. Also, the inhibition in vivo at 100 mg/kg in data set [9] came to 57%. Moreover, the AUC(0-t) at 4 h in [6] was 1810 ng·h/mL. In data set [7], the peak concentration (Cmax) stood at 1200 ng/mL. The metabolised at 0.25 h in [3] is 14.6%; in data set [4] it was 47.8%. The solubility turned out to be 385 µg/mL (≈ 825 µM) in data set [8] and 641 µg/mL (≈ 1370 µM) in data set [5].

For the origin of these results see ChEMBL document CHEMBL3603768, “Identification of 2-[2-(4-tert-butylphenyl)ethyl]-N-(4-fluorophenyl)-1,2,3,4-tetrahydroisoquinoline-6-sulfonamide (29) as an orally available MGAT2 inhibitor” (Bioorg Med Chem, 2015).
